Laboratory results from PMC10257182, “Discovery of senolytics using machine learning” (Nature Communications, 2023).
Where a name gives a salt, the structure may show the parent alone. Read-outs that look alike come from different tables or passages of the source.

Test system: senescent A549 cells (etoposide-induced)
Test: Nuclei count senolytic assay, therapy-induced senescence (TIS) model, senescent cells
Type: cell-based, human
Details: for viability at 10 µM / viability at 4.68 µM / viability at 2.19 µM / viability at 1 µM / viability at 0.468 µM / viability at 0.219 µM / viability at 0.1 µM / viability at 0.0468 µM / viability at 0.0219 µM / viability at 0.01 µM: Homo sapiens
Method: We performed a second validation of the effectiveness of our machine learning models using a different stressor. We focused on therapy-induced senescence (TIS, Supplementary Fig. 6a), where human epithelial cancerous cells (A549) were induced to become senescent by addition of etoposide. Cells were treated with 100 μM etoposide for 48 h, followed by another three days of exposure to media in standard conditions.
We performed experimental validation of the compounds with z-score > 8 (Fig. 2e). […] We employed two cellular models of senescence: one of OIS and a second one of TIS. For the OIS case, we utilised IMR90 ER:RAS cells with 4-OHT at 100 nM. […] For the TIS model, we used A549 cells with etoposide at 100 μM. The exposure of the cells to etoposide lasted 48 h, after which period the cells were cultivated for a further three days with normal media.
IMR90 (CCL-186) human foetal lung fibroblasts and A549 (CCL-185) human lung adenocarcinoma cells were obtained from the American Type Culture Collection (ATCC, Manassas, VA). The cell lines were confirmed to be mycoplasma negative (Lonza MycoAlert, cat #LT07-118). IMR90 ER:RAS is a derivative of IMR90 cells expressing a switchable version of oncogenic H-Ras[84]. IMR90 ER:RAS and A549 cells were maintained in Dulbecco’s Modified Eagle Medium (DMEM, ThermoFisher) supplemented with foetal bovine serum (10%), L-glutamine (2 mM, ThermoFisher), and antibiotic-antimycotic solution (1%, ThermoFisher) and incubated under standard tissue culture conditions (37 °C and 5% CO2). For induction of the senescent phenotype, IMR90-ER:RAS cells were cultured in hydroxytamoxifen (4-OHT) (Sigma) added media at 100 nM final concentration. IMR90 were kept in culture for over 27 passages for replicative senescence. Cells were tested for mycoplasma on a regular basis.
Cells were seeded (50 μL per well) into 384-well plates (IMR90 ER:RAS cells in Nunc Optical Bottom Polybase Microplates [#142761, Thermo Scientific, Rochester, NY] and A549 cells in CELLSTAR Cell Culture Microplates [#781091, Greiner Bio-One, Kremsmünster, Austria]). Cells were incubated under standard tissue culture conditions for 24 h before the addition of compounds. Passage 14 IMR90 ER:RAS cells were seeded at 1300 cells per well in the control condition, and at 1600 cells per well in the senescent case. Passage 34 A549 cells were seeded at 7000 cells per well in the control condition, and at 10,000 cells per well in the senescent case.
Dose response plates were prepared with a DMSO control and a 10-point […] concentration range, and added to the compounds using a D300e digital dispenser (Tecan Trading AG, Switzerland) at a final concentration of between 10 μM and 10 nM. Every screened condition was carried out in triplicate. After 72 h of incubation with exposure to the compounds, cells were fixed by the addition of an equal volume of formaldehyde (8%, 50 μL; #BP531-500, Fisher Bioreagents, Fisher Scientific, Loughborough, Leicestershire) to the existing media, incubated at room temperature (30 min), and washed three times in phosphate-buffered saline (PBS). Cells were then permeabilised in Triton-X100 (0.1%, 50 μL) and incubated at room temperature (30 min) followed by three more washes with PBS.
Cells were stained with Hoechst 33342 for nuclei count (excitation/emission wavelength at 387/447 […], DAPI channel, original concentration at 10 mg/ml, final concentration at 2 μg/ml; H1399, Molecular Probes, Eugene, OR). The staining solution was prepared in bovine serum albumin solution (10%). The staining solution was added to each well (30 μL) and incubated in the dark at room temperature (30 min), followed by three washes with PBS and no final aspiration. Plates were foil sealed.
Plates were imaged on an ImageXpress micro XLS (Molecular Devices, Eugene, OR) equipped with a robotic plate loader (Scara4, PAA, UK).

[1] = A549, log (dose) [M] -5, Senescent cells, mean, read-out: Mean % Cell Survival
[2] = A549, log (dose) [M] -5.33, Senescent cells, mean, read-out: Mean % Cell Survival
[3] = A549, log (dose) [M] -5.66, Senescent cells, mean, read-out: Mean % Cell Survival
[4] = A549, log (dose) [M] -6, Senescent cells, mean, read-out: Mean % Cell Survival
[5] = A549, log (dose) [M] -6.33, Senescent cells, mean, read-out: Mean % Cell Survival
[6] = A549, log (dose) [M] -6.66, Senescent cells, mean, read-out: Mean % Cell Survival
[7] = A549, log (dose) [M] -7, Senescent cells, mean, read-out: Mean % Cell Survival
[8] = A549, log (dose) [M] -7.33, Senescent cells, mean, read-out: Mean % Cell Survival
[9] = A549, log (dose) [M] -7.66, Senescent cells, mean, read-out: Mean % Cell Survival
[10] = A549, log (dose) [M] -8, Senescent cells, mean, read-out: Mean % Cell Survival
[11] = A549, read-out: Mean % Cell Survival

Row | SMILES | viability at 10 µM [1] | viability at 4.68 µM [2] | viability at 2.19 µM [3] | viability at 1 µM [4] | viability at 0.468 µM [5] | viability at 0.219 µM [6] | viability at 0.1 µM [7] | viability at 0.0468 µM [8] | viability at 0.0219 µM [9] | viability at 0.01 µM [10] | further results
1 | Cc1cnc(C(=O)N[C@H]2CCCCC/C=C\[C@@H]3C[C@@]3(C(=O)NS(=O)(=O)C3CC3)NC(=O)[C@@H]3C[C@@H](Oc4nc5ccccc5c5ccccc45)CN3C2=O)cn1 [Paritaprevir, paritaprevir, reference compound] | 113% | 107% | 112% | 108% | 112% | 104% | 112% | 115% | 103% | 103% | –
2 | CO[C@H]1C[C@@H]2CC[C@@H](C)[C@@](O)(O2)C(=O)C(=O)N2CCCC[C@H]2C(=O)O[C@H]([C@H](C)C[C@@H]2CC[C@@H](O)[C@H](OC)C2)CC(=O)[C@H](C)/C=C(\C)[C@@H](O)[C@@H](OC)C(=O)[C@H](C)C[C@H](C)/C=C/C=C/C=C/1C [Rapamycin, rapamycin, reference compound] | 212% | 215% | 208% | 228% | 246% | 228% | 250% | 249% | 69.5% | 93.7% | –
3 | CO[C@H]1C[C@@H]2CC[C@@H](C)[C@@](O)(O2)C(=O)C(=O)N2CCCC[C@H]2C(=O)O[C@H]([C@H](C)C[C@@H]2CC[C@@H](OP(C)(C)=O)[C@H](OC)C2)CC(=O)[C@H](C)/C=C(\C)[C@@H](O)[C@@H](OC)C(=O)[C@H](C)C[C@H](C)/C=C/C=C/C=C/1C [Ridaforolimus, ridaforolimus, reference compound] | 162% | 174% | 157% | 66.9% | 113% | 102% | 60.6% | 60.9% | 84.7% | 87.1% | –
4 | O=c1cc(-c2ccc(O)cc2)oc2cc(O)c(O)c(O)c12 [Scutellarein, scutellarein] | 108% | 104% | 105% | 135% | 106% | 103% | 81.8% | 88.6% | 97.4% | 91.3% | –
5 | C[C@H](CCC(=O)NCCS(=O)(=O)O)[C@H]1CC[C@H]2[C@@H]3[C@H](O)C[C@@H]4C[C@H](O)CC[C@]4(C)[C@H]3C[C@H](O)[C@]12C [Taurocholic acid sodium, taurocholic acid sodium salt hydrate] | – | – | – | – | – | – | – | – | – | – | viability at 0.01 µM [11]: 103%; viability at 0.0219 µM [11]: 108%; viability at 0.0468 µM [11]: 103%; viability at 0.1 µM [11]: 100%; viability at 0.219 µM [11]: 109%; viability at 0.468 µM [11]: 113%; viability at 1 µM [11]: 112%; viability at 2.19 µM [11]: 106%; viability at 4.68 µM [11]: 109%; viability at 10 µM [11]: 107%
6 | COC[C@H]1C[C@@H](c2nc(-c3ccc4c(c3)COc3cc5c(ccc6nc([C@@H]7CC[C@H](C)N7C(=O)[C@@H](NC(=O)OC)C(C)C)[nH]c65)cc3-4)c[nH]2)N(C(=O)[C@H](NC(=O)OC)c2ccccc2)C1 [Velpatasvir, velpatasvir, reference compound] | 114% | 105% | 120% | 122% | 122% | 113% | 112% | 115% | 91.3% | 104% | –
7 | C=Cc1c(C)c2cc3nc(cc4[nH]c(cc5nc(cc1[nH]2)C(C)=C5CCC(=O)O)c(CCC(=O)OC)c4C)[C@@]1(C)C3=CC=C(C(=O)OC)[C@H]1C(=O)OC [Verteporfin, verteporfin, reference compound] | – | – | – | – | – | – | – | – | – | – | Mean % Cell Survival (log (dose) [M] -5, Senescent cells, mean): 118.472%; Mean % Cell Survival (log (dose) [M] -5.33, Senescent cells, mean): 98.5505%; Mean % Cell Survival (log (dose) [M] -5.66, Senescent cells, mean): 115.47%; Mean % Cell Survival (log (dose) [M] -6, Senescent cells, mean): 116.11%; Mean % Cell Survival (log (dose) [M] -6.33, Senescent cells, mean): 114.215%; Mean % Cell Survival (log (dose) [M] -6.66, Senescent cells, mean): 107.66%; Mean % Cell Survival (log (dose) [M] -7, Senescent cells, mean): 100.361%; Mean % Cell Survival (log (dose) [M] -7.33, Senescent cells, mean): 89.0589%; Mean % Cell Survival (log (dose) [M] -7.66, Senescent cells, mean): 106.923%; Mean % Cell Survival (log (dose) [M] -8, Senescent cells, mean): 100.292%
8 | CC[C@]1(O)C[C@@H]2CN(CCc3c([nH]c4ccccc34)[C@@](C(=O)OC)(c3cc4c(cc3OC)N(C)[C@H]3[C@@](O)(C(=O)OC)[C@H](OC(C)=O)[C@]5(CC)C=CCN6CC[C@]43[C@@H]65)C2)C1 [Vinblastine sulfate, vinblastine sulfate, reference compound] | 88.8% | 83.2% | 90.4% | 72.2% | 92.1% | 97.3% | 103% | 99.9% | 103% | 104% | –
9 | CO[C@H]1C[C@@H]2CC[C@@H](C)[C@@](O)(O2)C(=O)C(=O)N2CCCC[C@H]2C(=O)O[C@H]([C@H](C)C[C@@H]2CC[C@H](n3cnnn3)[C@H](OC)C2)CC(=O)[C@H](C)/C=C(\C)[C@@H](O)[C@@H](OC)C(=O)[C@H](C)C[C@H](C)/C=C/C=C/C=C/1C [Zotarolimus, zotarolimus, reference compound] | 138% | 160% | 123% | 143% | 130% | 174% | 155% | 136% | 127% | 84.3% | –
